Data reported in patent US6218367A, “Paclitaxel-carbohydrate conjugates: design, synthesis and biological evaluations” (Organomed Corporation, priority 1999, dated 2001).
Like-named read-outs stand apart in the source and are kept apart here.

Tests used:
[1] = test system: OVCAR-3; assay: NCI in vitro human tumor cell line screen, ovarian cancer; format: cell-based
[2] = test system: OVCAR-5; assay: as above; format: cell-based
[3] = test system: OVCAR-8; assay: as above; format: cell-based; conditions: OVCAR-8, ovarian cancer, 48 hours
[4] = test system: SK-OV-3; assay: as above; format: cell-based; conditions: SK-OV-3, ovarian cancer, 48 hours
[5] = test system: MCF-7; assay: NCI in vitro human tumor cell line screen, breast cancer; format: cell-based
[6] = test system: HS578T; assay: as above; format: cell-based; conditions: Hs-578T
Method: (§1) Compounds were tested as described (Monks, A. et al., (1991). J. Nat. Cancer Int., 83, 757-766; Boyd, M. R., and Paull, K. D., (1995) "Some practical considerations and applications of the National Cancer Institute In Vitro Anticancer Drug Discovery Program", Drug Development Res., 34, 91-109 in the NCI in vitro human tumor cell line screen). The compounds were examined in 60 different cell lines. The following definitions are based on the National Cancer Institute in vitro screen protocol (Boyd, M. R., and Paull, K. D., (1995) "Some practical considerations and applications of the National Cancer Institute In Vitro Anticancer Drug Discovery Screen", ibid., 34, 91-109).
(§2) The "50% growth inhibition" parameter (GI50) is the concentration of test drug where: [formula]
(§3) T is the optical density of the test well after 48 hours drug exposure, T0 is the optical density at time zero, and C is the control optical density, PG is the "percent growth". It is a T/C like parameter that can have values from +100 to -100.
(§4) Total Growth Inhibition (TGI) signifies the cytostatic level effect: [formula]
(§5) The GI50, TGI and LC50 values were calculated by interpolation using the tested concentrations that give PG values above and below the response reference values (e.g. 50 for GI50). Dose-response curves are compared for compound 1 and paclitaxel for breast cancer, ovarian cancer, CNS cancer and non-small lung cancer in FIGS. 1-4 respectively.

[7] = test system: MDA-MB-435; assay: as above; format: cell-based; conditions: 48 h, MDA-MB-435, breast cancer, read-out: TGI (total growth inhibition)
Method: as §1, §2, §3, §4, §5

[8] = test system: MDA-N; assay: as above; format: cell-based
Method: as §1, §2, §3, §4, §5

[9] = test system: T-47D; assay: as above; format: cell-based
[10] = test system: A549/ATCC; assay: NCI in vitro human tumor cell line screen, non small lung cancer; format: cell-based; conditions: 48 hours
[11] = test system: EKVX; assay: as above; format: cell-based; conditions: 48 hours
[12] = test system: HOP-62; assay: as above; format: cell-based; conditions: HOP-62, non small lung cancer, 48 hours
[13] = test system: NCI-H226; assay: as above; format: cell-based; conditions: 48 hours
[14] = test system: NCI-H23; assay: as above; format: cell-based
[15] = test system: NCI-H322M; assay: as above; format: cell-based; conditions: 48 hours
[16] = test system: NCI-H522; assay: as above; format: cell-based; conditions: 48 hours
[17] = test system: SF-268; assay: NCI in vitro human tumor cell line screen, CNS cancer; format: cell-based; conditions: for GI50: Homo sapiens
[18] = test system: SF-295; assay: as above; format: cell-based
[19] = test system: SF-539; assay: as above; format: cell-based; conditions: SF-539, CNS cancer, 48 hours
[20] = test system: SNB-19; assay: as above; format: cell-based; conditions: SNB-19, CNS cancer, 48 hours
[21] = test system: SNB-75; assay: as above; format: cell-based; conditions: for GI50: Homo sapiens
Method: as §1, §2, §3, §4, §5

[22] = test system: U251; assay: as above; format: cell-based; conditions: U-251, 48 hours
[23] = test system: COLO205; assay: NCI in vitro human tumor cell line screen, colon cancer; format: cell-based
[24] = test system: HCC-2998; assay: as above; format: cell-based; conditions: HCC-2998, colon cancer, 48 hours
[25] = test system: HCT-116; assay: as above; format: cell-based; conditions: HCT-116, colon cancer, 48 hours
[26] = test system: HCT-15; assay: as above; format: cell-based
[27] = test system: HT-29; assay: as above; format: cell-based
Method: as §1, §2, §3, §4, §5

[28] = test system: SW-620; assay: as above; format: cell-based; conditions: SW-620, colon cancer, 48 hours
[29] = test system: CCRF-CEM; assay: NCI in vitro human tumor cell line screen, leukemia; format: cell-based
[30] = test system: HL-60TB; assay: as above; format: cell-based
[31] = test system: MOLT-2; assay: as above; format: cell-based; conditions: MOLT-2, leukemia, 48 hours
[32] = test system: RPMI-8226; assay: as above; format: cell-based; conditions: RPMI-8226, leukemia, 48 hours
[33] = test system: 786-0; assay: NCI in vitro human tumor cell line screen, renal cancer; format: cell-based
[34] = test system: RXF-393; assay: as above; format: cell-based
[35] = test system: SN12C; assay: as above; format: cell-based
[36] = test system: PC-3; assay: NCI in vitro human tumor cell line screen, prostate cancer; format: cell-based
[37] = test system: DU-145; assay: as above; format: cell-based
[38] = test system: IGROVI; assay: NCI in vitro human tumor cell line screen, ovarian cancer; format: cell-based; conditions: vs paclitaxel
[39] = test system: ADR-RES; assay: NCI in vitro human tumor cell line screen, breast cancer; format: cell-based; conditions: vs paclitaxel
[40] = test system: UACC-62; assay: NCI in vitro human tumor cell line screen, melanoma; format: cell-based; conditions: UACC-62, melanoma, vs paclitaxel
[41] = test system: ovarian cancer cell lines; assay: NCI screen, ovarian cancer cell lines as a group; format: cell-based, human; conditions: for GI50: Homo sapiens, read-out: GI50 values, range
[42] = test system: breast cancer cell lines; assay: NCI screen, breast cancer cell lines as a group; format: cell-based, human; conditions: for GI50: Homo sapiens, 48 h, read-out: GI50 values, range
[43] = test system: CNS cancer; assay: NCI screen, CNS cancer dose response curves; format: cell-based, human; conditions: FIG. 3, vs paclitaxel
[44] = test system: non-small cell lung cancer; assay: NCI screen, non-small cell lung cancer dose response curves; format: cell-based, human; conditions: FIG. 4, vs paclitaxel
[45] = test system: various cancer cell lines; assay: NCI in vitro human tumor cell line screen, various cancer cell lines; format: cell-based; conditions: for IC (TGI): Homo sapiens, 48 h, read-out: TGI values (concentrations), order of magnitude
Method: as §1, §2, §3, §4
The LC50 is the lethal dose concentration, "net cell killing" or cytotoxicity parameter: [formula]
as §5

[46] = Water solubility as equilibrium concentration by HPLC
Method: The water solubility of compound 1 was determined as an equilibrium concentration at room temperature using HPLC measurements.

[47] = 48 h, read-out: TGI (total growth inhibition)

For `CC(=O)OC1C(=O)C2(C)C(O)CC3OCC3(OC(C)=O)C2C(OC(=O)c2ccccc2)C2(O)CC(OC(=O)C(OC(=O)CCC(=O)NCCCC(=O)OC3C(O)C(O)OC(CO)C3O)C(NC(=O)c3ccccc3)c3ccccc3)C(C)=C1C2(C)C` (stereo not drawn) [chackol, (3-glucose) GABA paclitaxel succinate], the GI50 ([1]; Homo sapiens, OVCAR-3, ovarian cancer, 48 hours) was 266 pM, the “times more active than paclitaxel (GI50)” value ([1]; OVCAR-3, vs paclitaxel) was 18 times and the GI50 ([2]; Homo sapiens, OVCAR-5, ovarian cancer, 48 hours) was 156 pM. For the same compound, the “times more active than paclitaxel (GI50)” value ([2]; OVCAR-5, vs paclitaxel) was 32 times, the GI50 [3] was 437 pM and the GI50 [4] was 502 pM. The GI50 ([5]; Homo sapiens, MCF7, MCF-7, breast cancer, 48 hours) was 256 pM, the “times more active than paclitaxel (GI50)” value ([5]; MCF-7, vs paclitaxel) was 15 times and the IC (TGI) [6, 47] was 592 pM. It also gave a GI50 ([6]; 48 hours) of 180 pM, an IC (TGI) [7] of 215 pM and an IC (TGI) [8, 47] of 294 pM. For the same compound, the GI50 ([8]; 48 hours) was 105 pM, the GI50 ([9]; Homo sapiens, T47D, breast cancer, 48 hours) was 804 pM and the “times more active than paclitaxel (GI50)” value ([9]; vs paclitaxel) was 14 times. It also gave a GI50 [10] of 575 pM, a GI50 [11] of 1980 pM and a GI50 [12] of 1130 pM. The GI50 [13] was 419 pM, the GI50 ([14]; Homo sapiens, NCI-H23, non small lung cancer, 48 hours) was 428 pM and the “times more active than paclitaxel (GI50)” value ([14]; NCI-H23, vs paclitaxel) was 107 times. The GI50 [15] was 593 pM, the GI50 [16] was 184 pM and the GI50 ([17]; SF-268, CNS cancer, 48 hours, read-out: GI50) was 275 pM. The “times more active than paclitaxel (GI50)” value ([17]; SF-268, vs paclitaxel) was 28 times, the GI50 ([18]; Homo sapiens, SF-295, CNS cancer, 48 hours) was 1440 pM and the “times more active than paclitaxel (GI50)” value ([18]; SF-295, vs paclitaxel) was 25 times. For the same compound, the GI50 [19] was 220 pM, the GI50 [20] was 354 pM and the GI50 ([21]; SNB-75, CNS cancer, 48 hours, read-out: GI50) was 210 pM. The “times more active than paclitaxel (TGI)” value ([21]; SNB-75, CNS cancer, vs paclitaxel) was 67 times, the “times more active than paclitaxel (GI50)” value ([21]; SNB-75, vs paclitaxel) was 65 times and the GI50 [22] was 363 pM. For the same compound, the “times more active than paclitaxel (GI50)” value ([23]; COLO25 (so in the source), vs paclitaxel) was 19 times, the GI50 ([23]; Homo sapiens, COLO 205, COLO205, colon cancer, 48 hours) was 247 pM and the GI50 [24] was 152 pM. The GI50 [25] was 228 pM, the “times more active than paclitaxel (GI50)” value ([26]; HCT-15, vs paclitaxel) was 7 times and the GI50 ([26]; Homo sapiens, HCT-15, colon cancer, 48 hours) was 27900 pM. The “times more active than paclitaxel (TGI)” value ([27]; HT-29, colon cancer, vs paclitaxel) was 303 times, the “times more active than paclitaxel (GI50)” value ([27]; HT-29, vs paclitaxel) was 40 times and the GI50 ([27]; Homo sapiens, HT-29, colon cancer, 48 hours) was 127 pM. For the same compound, the GI50 [28] was 348 pM, the GI50 ([29]; Homo sapiens, leukemia, 48 hours) was 313 pM and the “times more active than paclitaxel (GI50)” value ([29]; vs paclitaxel) was 8 times. The “times more active than paclitaxel (GI50)” value ([30]; HL-60 (TB), vs paclitaxel) was 8 times, the GI50 ([30]; Homo sapiens, HL-60TB, leukemia, 48 hours) was 249 pM and the GI50 [31] was 487 pM. For the same compound, the GI50 [32] was 266 pM, the “times more active than paclitaxel (GI50)” value ([33]; 786-0, vs paclitaxel) was 11 times and the GI50 ([33]; Homo sapiens, 786-0, renal cancer, 48 hours) was 1330 pM. The GI50 ([34]; Homo sapiens, RXF-393, renal cancer, 48 hours) was 496 pM, the “times more active than paclitaxel (GI50)” value ([34]; RXF-393, vs paclitaxel) was 23 times and the GI50 ([35]; Homo sapiens, renal cancer, 48 hours) was 481 pM. The “times more active than paclitaxel (GI50)” value ([35]; vs paclitaxel) was 16 times, the GI50 ([36]; Homo sapiens, PC-3, prostate cancer, 48 hours) was 276 pM and the “times more active than paclitaxel (GI50)” value ([36]; PC-3, vs paclitaxel) was 10 times. For the same compound, the “times more active than paclitaxel (GI50)” value ([37]; DU-145, vs paclitaxel) was 12 times, the GI50 ([37]; Homo sapiens, DU-145, prostate cancer, 48 hours) was 401 pM and the “times more active than paclitaxel (GI50)” value [38] was 45 times. The “times more active than paclitaxel (GI50)” value [39] was 23 times, the “times more active than paclitaxel (GI50)” value [40] was 1490 times and the GI50 ([41]; ovarian lines OVCAR-3, OVCAR-5 and IGROVI) was about 100 pM. The “dose response curve compared with paclitaxel” value ([41]; ovarian cancer, FIG. 2, vs paclitaxel) was “extend one log unit lower than those for paclitaxel”, the GI50 ([42]; breast lines MCF-7, ADR-RES and T-47D) was 100 to 10000 pM and the “dose response curve compared with paclitaxel” value ([42]; breast cancer, FIG. 1, vs paclitaxel) was “extend one log unit lower than those for paclitaxel”. For the same compound, the “dose response curve compared with paclitaxel” value [43] was “extend one log unit lower than those for paclitaxel”, the “dose response curve compared with paclitaxel” value [44] was “extend one log unit lower than those for paclitaxel” and the IC (TGI) ([45]; on the order of, various cancer cell lines) was about 100 pM. The “dose response curves compared with paclitaxel” value ([45]; breast, ovarian, CNS, non-small lung cancer, FIGS. 1-4) was “extend one log unit lower”, the “growth inhibition (GI50) compared with paclitaxel” value ([45]; in general, vs paclitaxel) was “active at a much lower concentration as compared to paclitaxel” and the “total growth inhibition compared with paclitaxel” value ([45]; various cancer cell lines, vs paclitaxel) was “more active than paclitaxel”. For the same compound, the solubility [46] was 240 µg/mL.
Work on `CC(=O)O[C@H]1C(=O)[C@@]2(C)[C@H]([C@H](OC(=O)c3ccccc3)[C@]3(O)C[C@H](OC(=O)[C@H](O)[C@@H](NC(=O)c4ccccc4)c4ccccc4)C(C)=C1C3(C)C)[C@]1(OC(C)=O)CO[C@@H]1C[C@@H]2O` [paclitaxel] yielded a GI50 ([17]; SF-268, 48 h) of 7610 pM, a GI50 ([21]; SNB-75, 48 h) of 13600 pM and a GI50 ([41]; 48 h) of 1000 to 10000 pM. The GI50 [42] was 10000 to 100000 pM and the IC (TGI) [45] was 10000 to 100000 pM.
